In patent publication US20080313751A1, “Method by Using Human or Mice-Isg12 to Develop and Prepare Drugs and Single Nucleotide Polymorphism in the Isg12 Gene for Diagnostic Use” (priority 2005, published 2008):

Test system: NR4A1
Test: Subcellular (cytosol/nucleus) distribution of NR4A1 with overexpressed ISG12
Assay type: cell-based, human
Settings: EGFP-tagged NR4A1 and myc-tagged ISG12 overexpressed; data not shown
Source text: In order to quantify the effect of ISG12 on the cellular localization of NR4A1, the inventors analyzed the distribution of NR4A1 between the cytosol and the nucleus by separating sub-cellular fractions of 293 cells in which EGFP-tagged NR4A1 was overexpressed in the absence or presence of myc-tagged ISG12. In the presence of ISG12 20.8±7.4% (average±SD from 4 experiments; p<0.05) more NR4A1 was found in the cytosol as in the absence of ISG12. […] A representative example is given (n=3).
When the same experiments were performed with an EGFP-tagged NR4A1 construct (AA248-580) that cannot be exported from the nucleus^24 no influence of ISG12 on subcellular distribution of that construct was seen (FIG. 5). Similarly, the effect of ISG12 on full length NR4A1 was impaired in the presence of leptomycin B that inhibits nuclear export (data not shown).
Human embryonic kidney 293 cells were grown in 6-wells to sub-confluence and then transfected with EGFP-NR4A1 and mycISG12 together or separately. Cell fractionation was performed 30 hours after transfection, using MS buffer (210 mM mannitol, 70 mM sucrose, 5 mM Tris-HCl, pH 7.5 and 1 mM EDTA) containing 1% protease inhibitor cocktail. After homogenizing the cells with a 27 gauge needle 10 times, samples were spun at 1300×g for 10 minutes at 4° C. to pellet the nuclei. […]

SMILES: CCC(=C/[C@H](C)C/C=C/C(C)=C/[C@@H](C)C(=O)[C@@H](C)[C@H](O)[C@@H](C)C/C(C)=C/C(=O)O)/C=C/[C@@H]1OC(=O)C=C[C@@H]1C [leptomycin B]
- effect of ISG12 on full length NR4A1 (nuclear export / subcellular distribution) in the presence of the substance: impaired
